Data on one compound can be found in patent EP4755886A1 (Chengdu Chipscreen Pharmaceutical Ltd., priority 2023, dated 2025).

Data set [1] relates to gene-editing MTAP-/- human colon cancer cell strain HCT116. As to the kind of experiment: Efficacy in MTAP-/- HCT116 subcutaneous xenograft mouse model. It counts as in vivo, Balb/c nude mice. The conditions noted are these: 50 mg/kg, PO, qd, 28 days. Here is the method: The blank group contained 40% PEG400 normal saline with 2% DMSO. […] The test substance was intragastrically administered at 10 mg/kg once daily, and MRTX1719 was intragastrically administered at 50 mg/kg once daily. Model control: The vehicle (2% DMSO + 40% PEG400 + 58% normal saline) was intragastrically administered at a dose of 10 mL/kg once daily. Administration was performed for 28 days in total. […] The mice were euthanized on the day when the last administration was completed. […] In the formula, VTt represents the tumor volume of the treatment group at each measurement, and VT0 represents the tumor volume measured when the treatment group is grouped; VCt represents the tumor volume of the vehicle group at each measurement (same as VTt), and VC0 represents the tumor volume measured when the vehicle group is grouped. Data were analyzed using GraphPad Prism 9.0 software and expressed as Mean ± SEM (standard error). Pairwise comparisons between each administration group and the control group were performed using one-way analysis of variance (ANOVA). Variance homogeneity was determined using the Brown-Forsythe method, and variance heterogeneity was determined using the Dunnett's T3 method. Table 7. Efficacy evaluation in HCT116 subcutaneous xenograft mouse model

The target in another data set is T1, CYP450 enzyme 3A4 (Homo sapiens, UniProt P08684).
T1 construct: Liver microsomes (purchased from BIOIVT, Cat. No.: X008070); tissue BIOIVT X008070; host or cells: human liver microsomes
Kind of data set: CYP inhibition test in human liver microsomes. The data set is classed as in vitro ADME. As to conditions: human liver microsomes 0.1 mg/mL. The protocol:
Experimental materials: human liver microsomes (purchased from BIOIVT);
PBS: 0.1 M KH2PO4 and K2HPO4 buffers, pH 7.4.
MgCl2: a certain amount of MgCl2 was weighed out and prepared into a 20 mM MgCl2 solution with PBS.
NADPH (Chinese name: reduced nicotinamide adenine dinucleotide phosphate, purchased from Sigma, Cat. No.: 481973-500 mg): a certain amount of NADPH was weighed out and a 5 mM solution of NADPH was prepared with a 20 mM MgCl2 solution, and the final incubation concentration was 1 mM.
Compounds: 3 mM, 1 mM, 0.3 mM, 0.1 mM, 0.03 mM, 0.01 mM, and 0 mM solutions of the test compounds were prepared with a DMSO-methanol (v:v = 1:9) solution, and the final incubation concentrations were 30 µM, 10 µM, 3 µM, 1 µM, 0.3 µM, 0.1 µM, and 0 µM. 30 µM, 10 µM, 3 µM, 1 µM, 0.3 µM, and 0 µM solutions of the positive compound (ketoconazole) were prepared with a DMSO-methanol (v:v = 1:9) solution, and the final incubation concentrations were 0.3 µM, 0.1 µM, 0.03 µM, 0.01 µM, 0.003 µM, and 0 µM.
Substrate working solutions: 200 µM and 15 µM solutions of substrate working solutions (testosterone and midazolam) were prepared with PBS, separately, and the final incubation concentrations were 40 µM and 3 µM.
Liver microsomes (purchased from BIOIVT, Cat. No.: X008070): the liver microsomes were diluted to […] with PBS, and the final incubation concentration was 0.1 mg/mL.
The prepared test compounds or positive compounds were added to a 96-well plate, and then the prepared human liver microsome working solution and substrate working solution were added. The mixture was mixed well. The mixture was pre-incubated in a thermostat incubator at 37 °C for 5 min, and then the prepared NADPH was added to start the reaction. The mixture was incubated for 5 min or 10 min. After the incubation was completed, a pre-cooled acetonitrile solution containing an internal standard was added to terminate the reaction. After protein precipitation, the mixture was vortexed for 5 min with shaking and then centrifuged at 4000 rpm for 10 min. The supernatant was collected and added to the 96-well plate. The content (peak concentration ratio) of the metabolites of the substrate was determined by an LC-MS/MS method. The residual activity and the half maximal inhibitory concentration (IC50) of the enzyme were calculated based on the detected content.
Percentage of remaining enzyme activity: The activity of each subtype of CYP450 enzyme was expressed as the amount of metabolite produced, and the percentage of remaining enzyme activity was calculated as follows: [formula]
The concentrations of the test substances and the corresponding residual activity percentages were fitted using a nonlinear model of Excel software, and the concentration of the test substances at which 50% inhibition of metabolite production was achieved was the IC50 value.
A general note: Liver microsomes are a subcellular fraction often used to study metabolism.

For another data set, the target named is T2, hERG (Homo sapiens, UniProt Q12809).
T2 construct: purchased ThermoFisher Scientific PV5365
Kind of data set: hERG test (Predictor hERG Fluorescence Polarization Assay Kit). It counts as binding. Here is the method: Predictor™ hERG Fluorescence Polarization Assay Kit (ThermoFisher Scientific, PV5365).
The procedures in the kit instructions were followed: 4× Predictor™ hERG Tracer Red, 4× E-4031, and 4× test substance solutions (final assay concentration: 10 µM) were prepared in advance. 5 µL Predictor™ hERG FP Assay Buffer and 5 µL Predictor™ hERG Membrane were added sequentially to the Assay Blank group in a 384-well plate. 2.5 µL Predictor™ hERG FP Assay Buffer, 2.5 µL of 4× E-4031, and 2.5 µL of 4× test substance were added to the negative control group, the positive control group, and the test substance group, respectively, and then 5 µL Predictor™ hERG Membrane and 2.5 µL of 4× Predictor™ hERG Tracer Red were sequentially added. The total volume of the experimental system was 10 µL, and three duplicate wells were set for each group. After loading, the plate was gently tapped to mix well and incubated at room temperature (25 °C) in the dark for 3.5 h. After the incubation was completed, the fluorescence polarization value mP was measured on a microplate reader, and G Factor was 2.14.
The inhibition rate of the test substance was calculated using the following formula: [formula]

The test system of data set [2] is human large cell lung cancer cell line LU99. Kind of data set: Efficacy in LU99 xenograft mouse model. It counts as in vivo, Balb/c nude mice. The conditions noted are these: 50 mg/kg, PO, qd, 28 days. Here is the method:
The human large cell lung cancer cell line LU99 was purchased from Nanjing Cobioer Biosciences Co., Ltd. (CBP61512) and cultured in RPMI-1640 medium (Gibco) containing 10% fetal bovine serum (Gibco); the test substances were prepared into suspensions at concentrations of 0.3 mg/mL, 1 mg/mL, and 5 mg/mL using a 0.5% aqueous MC solution containing 0.2% Tween 80. Reference Example 6 (MRTX1719) was prepared into a 5 mg/mL clear solution using 40% PEG400 normal saline containing 2% DMSO.
LU99 cells in the logarithmic growth phase were digested, collected, and counted, and the cell density was adjusted to 2 × 10^7 cells/mL using a 1:1 serum-free medium and matrigel (Corning). 18-20 g of Balb/c nude mice (Beijing Huafukang Biotechnology Co., Ltd.) were inoculated subcutaneously with 100 µL of cell suspension per mouse. On day 12 after inoculation, animals with a mean tumor volume of 116 mm^3 were randomly grouped, with 7 animals in each group. The test substances were intragastrically administered at 3 mg/kg, 10 mg/kg, and 50 mg/kg once daily, and MRTX1719 was intragastrically administered at 50 mg/kg once daily. A vehicle (2% DMSO + 40% PEG400 + 58% normal saline) was intragastrically administered to the blank group at a dose of 10 mL/kg once daily. Administration was performed for 28 days in total.
After the animals were inoculated with LU99 cells, the tumor volume was measured 2-3 times a week, and the tumor volume was calculated based on length × width^2 × 0.5. On the day when the last administration was completed, except for the mice with tumor regression, which were subjected to discontinuation observation, the remaining mice were euthanized.
In the formula, VTt represents the tumor volume of the treatment group at each measurement, and VT0 represents the tumor volume measured when the treatment group is grouped; VCt represents the tumor volume of the model control group at each measurement, and VC0 represents the tumor volume measured when the model control group is grouped.
Data were analyzed using GraphPad Prism 9.0 software and expressed as Mean ± SEM (standard error). Pairwise comparisons between each administration group and the model control group were performed using one-way analysis of variance (ANOVA). Variance homogeneity was determined using the Brown-Forsythe method, and variance heterogeneity was determined using the Dunnett's T3 method. Table 8. Efficacy evaluation in LU99 xenograft mouse model

Another data set can be described thus: PK experiment in rats. It counts as in vivo. As to conditions: rat; SD male rats, PO 10 mg/kg, vehicle 0.5% MC/0.2% Tween 80, plasma. The protocol: The samples were analyzed by LC-MS/MS. […] Table 6. Pharmacokinetic parameters for rats
The nature of the next data set: PK experiment in mice. As to conditions: mouse, plasma, po, 10 mg/kg.

Where two headings read alike, the source gives them in different places.

T1 sequence (P08684 whole entry): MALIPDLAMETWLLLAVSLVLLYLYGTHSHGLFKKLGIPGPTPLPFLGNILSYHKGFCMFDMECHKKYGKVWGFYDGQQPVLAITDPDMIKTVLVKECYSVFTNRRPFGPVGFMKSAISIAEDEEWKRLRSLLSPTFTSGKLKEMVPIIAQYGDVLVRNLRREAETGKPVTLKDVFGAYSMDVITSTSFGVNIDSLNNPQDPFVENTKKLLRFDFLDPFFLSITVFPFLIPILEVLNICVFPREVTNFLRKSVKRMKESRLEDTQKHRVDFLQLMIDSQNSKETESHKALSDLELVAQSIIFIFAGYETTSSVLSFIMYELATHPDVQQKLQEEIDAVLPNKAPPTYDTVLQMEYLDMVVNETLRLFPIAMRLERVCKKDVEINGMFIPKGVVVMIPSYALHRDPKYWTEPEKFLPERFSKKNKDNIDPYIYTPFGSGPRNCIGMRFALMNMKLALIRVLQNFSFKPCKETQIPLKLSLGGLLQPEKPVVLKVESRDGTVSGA
T2 sequence (Q12809 whole entry): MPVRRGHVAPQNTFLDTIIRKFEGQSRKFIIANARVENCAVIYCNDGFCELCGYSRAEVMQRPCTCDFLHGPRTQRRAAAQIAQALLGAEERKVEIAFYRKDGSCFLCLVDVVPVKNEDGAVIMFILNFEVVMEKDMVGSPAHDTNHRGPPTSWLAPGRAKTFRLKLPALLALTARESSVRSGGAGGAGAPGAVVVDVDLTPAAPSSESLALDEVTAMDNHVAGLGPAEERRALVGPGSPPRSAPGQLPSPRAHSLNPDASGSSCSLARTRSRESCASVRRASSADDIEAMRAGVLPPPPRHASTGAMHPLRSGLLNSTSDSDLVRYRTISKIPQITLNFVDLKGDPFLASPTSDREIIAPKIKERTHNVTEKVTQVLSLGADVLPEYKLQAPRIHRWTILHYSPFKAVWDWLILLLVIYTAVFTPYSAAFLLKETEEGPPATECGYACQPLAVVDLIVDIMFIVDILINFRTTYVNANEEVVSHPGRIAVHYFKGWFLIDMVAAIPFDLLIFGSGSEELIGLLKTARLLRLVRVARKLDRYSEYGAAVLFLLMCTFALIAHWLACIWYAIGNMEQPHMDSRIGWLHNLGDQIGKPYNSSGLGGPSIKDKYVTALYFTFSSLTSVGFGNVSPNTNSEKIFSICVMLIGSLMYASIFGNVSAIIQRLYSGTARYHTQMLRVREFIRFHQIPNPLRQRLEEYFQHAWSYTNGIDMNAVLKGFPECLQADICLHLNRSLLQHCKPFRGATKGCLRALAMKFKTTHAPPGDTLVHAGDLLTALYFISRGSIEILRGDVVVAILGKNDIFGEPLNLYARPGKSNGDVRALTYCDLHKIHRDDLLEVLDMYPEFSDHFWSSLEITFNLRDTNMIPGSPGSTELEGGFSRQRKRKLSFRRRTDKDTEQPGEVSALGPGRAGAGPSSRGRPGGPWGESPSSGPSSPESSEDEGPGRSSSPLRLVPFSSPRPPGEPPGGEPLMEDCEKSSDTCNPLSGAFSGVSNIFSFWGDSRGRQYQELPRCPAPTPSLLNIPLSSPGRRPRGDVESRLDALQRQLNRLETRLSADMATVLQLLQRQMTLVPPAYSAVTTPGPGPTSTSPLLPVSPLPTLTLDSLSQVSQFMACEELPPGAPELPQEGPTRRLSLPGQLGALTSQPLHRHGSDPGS
Method for PK experiment in mice: Experimental materials: the experimental animals were healthy adult female BALB/c mice (provided by Sichuan Vital River Laboratory Animal Technology Co., Ltd.).
Administration mode and sample collection in mice: BALB/c female mice received oral intragastrical administration (10 mg/kg, vehicle: 0.5% methylcellulose/0.2% Tween 80), and 60 µL of whole blood from the venous plexus of the fundus of the mice at different time points was collected at 0.25 h, 0.5 h, 1 h, 2 h, 4 h, 6 h, 8 h, and 24 h after administration and centrifuged at 4000 rpm for 6 min to collect plasma.
10 µL of mouse plasma sample was added to 190 µL of acetonitrile solution containing an internal standard to precipitate protein. The mixture was vortexed for 10 min and centrifuged at 4000 rpm for 10 min. The supernatant was collected and added to a 96-well plate. The samples were analyzed by LC-MS/MS. The drug concentrations in the plasma of mice at different time points after intragastric administration of the example compounds were measured by an LC-MS/MS method, and the related pharmacokinetic parameters were calculated, such that the pharmacokinetic behavior of the compounds in the mice was studied, and the pharmacokinetic characteristics were evaluated.

`Cn1ncc(-c2ccc3c(=O)[nH]nc(CN)c3c2)c1-c1c(F)c(Cl)cc(OC2CC2)c1C#N` (atropisomer, axis not shown) [Reference Example 6, reference compound]: the TGI (commonly the reduction of tumour growth relative to the control group) worked out at 72.21% in data set [1] and 90.96% in data set [2]. Also, the Tumor volume worked out at 525.74 mm^3 in data set [1] and 279.68 mm^3 in data set [2]. Moreover, the IC50 (as a rule, the midpoint of a concentration-inhibition curve) on CYP450 enzyme 3A4 (substrate midazolam 3 µM, read-out: IC50 3A4-Midazolam) is 2130 nM; on CYP450 enzyme 3A4 (substrate testosterone 40 µM, read-out: IC50 3A4-Testosterone), 1950 nM; at hERG (only 10 µM tested), below 10000 nM. Besides, the inhibition – broadly, the relative decrease from the control value, in per cent – at 3.5 h, 10 µM on hERG (herg membrane fluorescence polarization, 10 µM test substance, three duplicate wells) was 77.4%. For the same compound, the exposure AUC(0-t) (as a rule, exposure summed from dosing to a finite time, without extrapolation to infinity) stood at 100 ± 103 ng·h/mL in “PK experiment in rats” and 1970 ± 316 ng·h/mL in “PK experiment in mice”. The Cmax – broadly, the maximum level reached in the sampled fluid or tissue – came to 107 ± 149 ng/mL in the data set “PK experiment in rats” and 428 ± 220 ng/mL in “PK experiment in mice”.
